Ki data for one compound are collected here from patent US20130217722A1, “NOVEL COMPOUND USEFUL FOR THE TREATMENT OF DEGENERATIVE AND INFLAMMATORY DISEASES” (priority 2012, published 2013).

Each structure is given as a SMILES string. “And” between values parts separate entries of the source, which are not always exact repeats. Identical values can stand only once.

Assay [1] addresses T1, JAK1 (Homo sapiens, UniProt P23458).
T1 construct: Recombinant human JAK1 (catalytic domain, amino acids 866-1154; catalog number PV4774) was purchased from Invitrogen; purchased Invitrogen PV4774
The assay is described as follows: JAK1 Ki determination assay. The format is biochemical. Conditions: Lineweaver-Burk, varying ATP; read-out: Ki against JAK1. How it is done: For the determination of Ki, different amounts of compound were mixed with the enzyme and the enzymatic reaction was followed as a function of ATP concentration. The Ki was determined by means of double reciprocal plotting of Km vs compound concentration (Lineweaver-Burk plot). 1 ng of JAK1 (Invitrogen, PV4774) is used in the assay. The substrate was 50 nM Ulight-JAK-1 (Tyr1023) Peptide (Perkin Elmer, TRF0121) The reaction is performed in 25 mM MOPS pH 6.8, 0.01%, 2 mM DTT, 5 mM MgCl2 Brij-35 with varying concentrations of ATP and compound. Phosphorylated substrate was measured using an Eu-labeled anti-phosphotyrosine antibody PT66 (Perkin Elmer, AD0068) as described in 1.1.2. Readout was performed on the envision (Perkin Elmer) with excitation at 320 nm and emission followed at 615 nm and 665 nm.

Assay [2] deals with T2, TYK2 (Homo sapiens, UniProt P29597).
T2 construct: purchased Carna Biosciences 09CBS-0983D
As to the kind of experiment: TYK2 Ki determination assay (kinase tracer binding). Particulars: kinase tracer 236 binding; read-out: Ki against TYK2. How it is done:
TYK2 (Carna Biosciences, 09CBS-0983D) was used at a final concentration of 5 nM. The binding experiment was performed in 50 mM Hepes pH 7.5, 0.01% Brij-35, 10 mM MgCl2, 1 mM EGTA using 50 nM kinase tracer 236 (Invitrogen, PV5592) and 2 nM Eu-anti-GST (Invitrogen, PV5594) with varying compound concentrations. Detection of tracer was performed according to the manufacturers' procedure.

Assay [3] deals with T3, JAK2 (Homo sapiens, UniProt O60674).
T3 construct: Recombinant human JAK2 catalytic domain (amino acids 808-1132; catalog number PV4210) was purchased from Invitrogen; purchased Invitrogen PV4210
As to the kind of experiment: JAK2 Ki determination assay (kinase tracer binding). Conditions: kinase tracer 236 binding; read-out: Ki against JAK2. How it is done:
JAK2 (Invitrogen, PV4210) was used at a final concentration of 5 nM. The binding experiment was performed in 50 mM Hepes pH 7.5, 0.01% Brij-35, 10 mM MgCl2, 1 mM EGTA using 25 nM kinase tracer 236 (Invitrogen, PV5592) and 2 nM Eu-anti-GST (Invitrogen, PV5594) with varying compound concentrations. Detection of tracer was performed according to the manufacturer's procedure.

T2 sequence (P29597 whole entry): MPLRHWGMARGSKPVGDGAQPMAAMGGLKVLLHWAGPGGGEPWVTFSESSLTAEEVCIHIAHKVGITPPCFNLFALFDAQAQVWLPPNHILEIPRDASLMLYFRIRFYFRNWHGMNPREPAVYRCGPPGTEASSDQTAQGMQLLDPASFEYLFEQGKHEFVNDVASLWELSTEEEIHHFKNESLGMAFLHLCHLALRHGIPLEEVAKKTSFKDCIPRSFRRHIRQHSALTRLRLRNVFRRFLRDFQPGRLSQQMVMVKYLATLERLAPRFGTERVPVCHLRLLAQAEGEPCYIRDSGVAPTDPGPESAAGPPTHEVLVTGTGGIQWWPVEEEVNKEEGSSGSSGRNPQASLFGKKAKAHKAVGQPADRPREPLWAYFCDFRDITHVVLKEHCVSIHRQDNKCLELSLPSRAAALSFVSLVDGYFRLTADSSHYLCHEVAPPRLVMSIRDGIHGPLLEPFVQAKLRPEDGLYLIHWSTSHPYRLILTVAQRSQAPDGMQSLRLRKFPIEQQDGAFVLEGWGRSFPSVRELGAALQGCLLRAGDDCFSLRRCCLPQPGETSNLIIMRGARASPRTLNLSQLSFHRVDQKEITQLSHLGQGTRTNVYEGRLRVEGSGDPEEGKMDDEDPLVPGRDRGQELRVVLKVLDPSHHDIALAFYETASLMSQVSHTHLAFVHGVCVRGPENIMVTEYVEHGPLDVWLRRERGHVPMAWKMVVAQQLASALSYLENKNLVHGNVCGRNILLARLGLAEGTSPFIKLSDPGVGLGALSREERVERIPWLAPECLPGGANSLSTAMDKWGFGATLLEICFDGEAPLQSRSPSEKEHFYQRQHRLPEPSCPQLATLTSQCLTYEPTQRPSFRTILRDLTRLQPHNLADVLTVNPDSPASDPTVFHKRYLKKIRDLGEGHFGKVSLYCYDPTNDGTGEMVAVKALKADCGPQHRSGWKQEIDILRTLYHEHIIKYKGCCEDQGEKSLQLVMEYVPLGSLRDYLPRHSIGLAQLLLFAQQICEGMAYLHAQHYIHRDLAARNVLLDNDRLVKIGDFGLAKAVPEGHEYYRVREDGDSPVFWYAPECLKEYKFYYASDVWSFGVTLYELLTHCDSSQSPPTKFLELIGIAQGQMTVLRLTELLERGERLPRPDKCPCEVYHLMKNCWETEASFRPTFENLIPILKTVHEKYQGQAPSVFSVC
T1 sequence (P23458 866-1154): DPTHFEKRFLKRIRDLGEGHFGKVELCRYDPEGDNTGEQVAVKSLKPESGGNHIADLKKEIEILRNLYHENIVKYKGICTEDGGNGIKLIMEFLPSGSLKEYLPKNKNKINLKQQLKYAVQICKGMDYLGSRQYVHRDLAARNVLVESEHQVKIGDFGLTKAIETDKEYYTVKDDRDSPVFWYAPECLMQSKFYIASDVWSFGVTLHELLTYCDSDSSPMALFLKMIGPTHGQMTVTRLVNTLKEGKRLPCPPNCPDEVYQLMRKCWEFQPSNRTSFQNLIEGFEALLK
T3 sequence (O60674 808-1132): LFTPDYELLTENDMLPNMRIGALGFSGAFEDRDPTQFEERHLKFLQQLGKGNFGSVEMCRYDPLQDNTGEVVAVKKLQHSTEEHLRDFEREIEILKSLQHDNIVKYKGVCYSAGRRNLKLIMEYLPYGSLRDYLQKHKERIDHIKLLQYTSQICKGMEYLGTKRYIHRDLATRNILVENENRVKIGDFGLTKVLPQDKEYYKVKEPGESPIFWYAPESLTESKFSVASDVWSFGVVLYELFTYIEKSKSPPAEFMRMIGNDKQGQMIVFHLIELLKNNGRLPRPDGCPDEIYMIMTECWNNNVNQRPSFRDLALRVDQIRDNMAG

For `CCc1cc(C2=CCN(C(=O)CC#N)CC2)ccc1N(C)c1cc2c(cn1)ncn2C` [Compound 1], the inhibition constant (Ki) (commonly a dissociation constant, usually derived from enzyme kinetics or from competition with a known ligand) in assay [1] was 3.69 nM; in assay [2], 70.7 nM and 108 nM; in assay [3], 25.1 nM.
